# Biological target: T1, RORc ligand binding domain (Homo sapiens, UniProt P51449)
# T1 sequence (P51449 269-508 limits assumed): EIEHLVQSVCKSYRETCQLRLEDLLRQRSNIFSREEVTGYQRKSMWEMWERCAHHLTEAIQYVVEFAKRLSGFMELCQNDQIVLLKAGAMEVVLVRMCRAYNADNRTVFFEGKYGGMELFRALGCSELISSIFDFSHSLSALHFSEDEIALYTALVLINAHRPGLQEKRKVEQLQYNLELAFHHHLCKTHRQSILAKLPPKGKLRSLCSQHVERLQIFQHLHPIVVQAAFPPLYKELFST
# Assay: In Vitro RORc Ligand Binding Assay
# Conditions: RORc IC50, radioligand 25-[3H]hydroxycholesterol 6 nM; 0.6 ug/mL RORc receptor; 3 h at 25° C.
row,SMILES,IC50
1,CC1(C)[C@H]2CC[C@]1(c1ccnc(-n3cnc(C(N)=O)c3)n1)c1nnc(-c3c(F)cccc3F)cc12 [Example 261],11.7 nM
2,CC(C)(O)c1nnc(-c2nccc([C@@]34CC[C@@H](c5cc(-c6c(F)cccc6F)nnc53)C4(C)C)n2)[nH]1 [Example 262],37.4 nM
3,C[C@H](O)c1nnc(-c2nccc([C@@]34CC[C@@H](c5cc(-c6c(F)cccc6F)nnc53)C4(C)C)n2)[nH]1 [Example 263],20.8 nM
4,C[C@@H](O)c1nnc(-c2nccc([C@@]34CC[C@@H](c5cc(-c6c(F)cccc6F)nnc53)C4(C)C)n2)[nH]1 [Example 264],32.3 nM
5,Cc1ncn(-c2ncc(F)c([C@@]34CC[C@@H](c5cc(-c6c(F)cccc6F)nnc53)C4(C)C)n2)n1 [Example 267],17.3 nM
6,"Cc1nc(-c2ccnc([C@@]34CC[C@@H](c5cc(-c6c(F)cccc6F)nnc53)C4(C)C)n2)co1 [Example 275, 4-(2-((5R,8R)-3-(2,6-difluorophenyl)-9,9-dimethyl-5,6,7,8-tetrahydro-5,8-methanocinnolin-8-yl)pyrimidin-4-yl)-2-methyloxazole]",10.3 nM
7,CC(C)(O)c1ncn(-c2nccc([C@@]34CC[C@@H](c5cc(-c6c(F)cccc6F)nnc53)C4(C)C)n2)n1 [Example 276],15.5 nM
8,CNC(=O)c1nc(-c2ncc(F)c([C@@]34CC[C@@H](c5cc(-c6c(F)cccc6F)nnc53)C4(C)C)n2)no1 [Example 277],12.4 nM
9,"C[C@@H](O)Cc1n[nH]c(-c2cncc([C@@]34CC[C@@H](c5cc(-c6c(F)cccc6F)nnc53)C4(C)C)n2)n1 [Example 279, (R)-1-(5-(6-((5R,8S)-3-(2,6-difluorophenyl)-9,9-dimethyl-5,6,7,8-tetrahydro-5,8-methanocinnolin-8-yl)pyrazin-2-yl)-1H-1,2,4-triazol-3-yl)propan-2-ol]",12.6 nM
10,"CC(C)(O)c1c[nH]c(-c2cncc([C@@]34CC[C@@H](c5cc(-c6c(F)cccc6F)nnc53)C4(C)C)n2)n1 [Example 280, 2-(2-(6-((5R,8S)-3-(2,6-difluorophenyl)-9,9-dimethyl-5,6,7,8-tetrahydro-5,8-methanocinnolin-8-yl)pyrazin-2-yl)-1H-imidazol-4-yl)propan-2-ol]",13.6 nM

# These reach a lower IC50. Values come first.
row,IC50,SMILES
1,4.3 nM,"Cc1cc(-c2ccnc([C@@]34CC[C@@H](c5cc(-c6c(F)cccc6F)nnc53)C4(C)C)n2)no1 [Example 266, 3-(2-((5R,8R)-3-(2,6-difluorophenyl)-9,9-dimethyl-5,6,7,8-tetrahydro-5,8-methanocinnolin-8-yl)pyrimidin-4-yl)-5-methylisoxazole]"
2,3.3 nM,CC1(C)[C@H]2CC[C@]1(c1nc(N)ncc1F)c1nnc(-c3c(F)cccc3F)cc12 [Example 268]
3,3 nM,"CC(C)(O)c1cc(-c2cncc([C@@]34CC[C@@H](c5cc(-c6c(F)cccc6F)nnc53)C4(C)C)n2)on1 [Example 269, 2-(5-(6-((5R,8S)-3-(2,6-difluorophenyl)-9,9-dimethyl-5,6,7,8-tetrahydro-5,8-methanocinnolin-8-yl)pyrazin-2-yl)isoxazol-3-yl)propan-2-ol]"
4,1.9 nM,Cc1ncn(-c2cccc([C@@]34CC[C@@H](c5cc(-c6c(F)cccc6F)nnc53)C4(C)C)n2)n1 [Example 270]
5,4.4 nM,CC1(C)[C@H]2CC[C@]1(c1ccnc(-n3cnc(C(F)(F)F)n3)n1)c1nnc(-c3c(F)cccc3F)cc12 [Example 271]
6,5.2 nM,CC(C)c1ncn(-c2nccc([C@@]34CC[C@@H](c5cc(-c6c(F)cccc6F)nnc53)C4(C)C)n2)n1 [Example 273]
7,2 nM,CC1(C)[C@H]2CC[C@]1(c1ccnc(-n3cnc(C4CC4)n3)n1)c1nnc(-c3c(F)cccc3F)cc12 [Example 274]
8,6.8 nM,"CC[C@@H](O)c1n[nH]c(-c2cncc([C@@]34CC[C@@H](c5cc(-c6c(F)cccc6F)nnc53)C4(C)C)n2)n1 [Example 278, (R)-1-(5-(6-((5R,8S)-3-(2,6-difluorophenyl)-9,9-dimethyl-5,6,7,8-tetrahydro-5,8-methanocinnolin-8-yl)pyrazin-2-yl)-1H-1,2,4-triazol-3-yl)propan-1-ol]"

# From patent publication US10487068B2, “Pyridazine derivatives as RORc modulators” (Genentech, Inc., priority 2015, dated 2019)
